Test results published in publication PMC11375702, “Early Preclinical Studies of Ergosterol Peroxide and Biological Evaluation of Its Derivatives” (ACS Omega, 2024).
Values after ≈ are worked out from the molar mass of the structure shown. Where two headings read alike, the source gives them in different places.

Legend:
[1] = tested on: SUM149; assay: CellTiter-Glo 72 h cytotoxicity assay, SUM149; format: cell-based; details: Homo sapiens; for EC50: SUM149, CTG assay, 72 h; for IC50: calculated from SUM149 EC50
Source text: (§1) First, topological polar surface area (tPSA), a widely used molecular descriptor that provides insight into compound absorption and membrane penetration, was theoretically calculated for these compounds along with the estimated c log P (partition coefficient) or log P to further assess their global therapeutic potential.[18],[19] Lipophilicity, a measurable and predictable physical property, can provide practical guidance in designing compounds with improved molecular properties.[20] The tPSA sums the contribution of the surface area of polar atoms, enabling us to determine whether the compounds are more likely to be cell membrane permeable. The aqueous solubility was measured by ultraviolet/visible (UV/vis) spectroscopy.[21] […] EP shares an improved cLogP, but still relatively high from a desirable drug candidate (2.5–3.5). […] Compound 4 has a higher c log P, while compounds 5–10 have lower c log P values. To determine LiPE (lipophilicity efficiency), the following formula was used: LiPE = pIC50 – log P, according to established methods.[22],[23] […] The obtained EC50 values for the newly generated EP derivatives were within a similar range for other derivatives previously described against TNBC models.[17]
(§2) The following stable human cell lines were utilized for this study: SUM149 and MDA-MB-231 (breast cancer models) and BJ (human normal fibroblast, foreskin). Cells were purchased from BioIVT or the American Type Culture Collection (ATCC). Cells were cultured in F-12-Nutrient Mixture (SUM149), DMEM (MDA-MB-231), or EMEM (BJ) medium supplemented with 10% fetal bovine serum (Sigma-Aldrich, St. Louis, MO) and 2 mmol of L-glutamine, at 37 °C in a humidified 5% CO2 atmosphere (no antibiotics) as indicated by the manufacturer. Cell cultures were grown to 80–90% confluence before use, except where otherwise specified. Our cell lines are authenticated every 3 months using the CellCheck service (Idexx BioResearch, Westbrook, ME). Cells were tested for mycoplasma prior to use (MycoAlert detection Kit Lonza LT07–318) and discarded if they tested positive. A cell proliferation assay was performed using the CellTiter-Glo (Promega Corp., Madison, WI) luminescent cell viability assay kit. Cells were detached with trypsin, counted, and seeded in white polystyrene flat-bottom sterile 96-well tissue culture-treated plates (catalog no. 3917, Corning, Glendale, Arizona) and incubated overnight at 37 °C. MDA-MB231, SUM149, and BJ cells were seeded into 96-well plates at concentrations experimentally determined (0.4 × 10^4, 0.25 × 10^4, and 0.3 × 10^4 cells per well, respectively) to ensure logarithmic growth during the duration of the experiment and to prevent adverse effects on cell growth by DMSO exposure. The plates were incubated for 12 h before treatment. Stock solutions of test compounds (10 mM in DMSO) in nine 3-fold serial dilutions were dispensed. The final concentration of DMSO was 0.3% (v/v) in each well. The positive control used was staurosporine (10 μM) as the kill-all control, and the negative control used is DMSO as we have published. Staurosporine is a potent alkaloid inducer of various cell death modalities but primarily apoptosis, making it a reliable positive control for viability assays. The plates were incubated for 72 h and then quenched with CTG at 50 μL per well at RT. Plates were then incubated at RT for 20 min and centrifuged at 1000 rpm for 1 min. Luminescence was read on a CLARIOstar Plus plate reader (BMG LabTech, Ortenberg, Germany).
Three or four technical replicates were conducted for each experimental condition, and a minimum of three independent experiments were conducted for each assay. In vitro ADME values were expressed as mean ± standard deviation (SD) of at least three independent experiments. One-way analysis of variance (ANOVA) was adopted for comparisons among groups using the GraphPad Prism 10.2.3 (GraphPad Software, San Diego, CA). A difference of P < 0.05 was considered as statistically significant. […]

[2] = tested on: MDA-MB-231; assay: CellTiter-Glo 72 h cytotoxicity assay, MDA-MB-231; format: cell-based; details: Homo sapiens, CTG assay, read-out: MDA-MB231 (EC50)
Experimental: as §2
(§3) Three or four technical replicates were conducted for each experimental condition, and a minimum of three independent experiments were conducted for each assay. In vitro ADME values were expressed as mean ± standard deviation (SD) of at least three independent experiments. One-way analysis of variance (ANOVA) was adopted for comparisons among groups using the GraphPad Prism 10.2.3 (GraphPad Software, San Diego, CA). A difference of P < 0.05 was considered as statistically significant. Data are expressed as mean ± SEM. For CTG, the mean luminescence of each experimental treatment group was normalized as a percentage of the mean intensity of untreated controls (DMSO as vehicle). EC50 values were calculated from dose–response curve fitting via nonlinear regression using GraphPad Prism 10.2.3 (GraphPad Software, San Diego, CA). A therapeutic index (TI) between normal and tumor cell lines can be determined (EC50 non-neoplastic cell line BJ)/(EC50 cancer cell line). In vivo studies were analyzed using mixed-effects regression models to compare the changes in tumor volume over time by treatment group. Tumor volume reduction was compared using ANOVA with repeated measures, and all data was considered significant when P < 0.05.

[3] = tested on: BJ; assay: CellTiter-Glo 72 h cytotoxicity assay, BJ normal fibroblasts; format: cell-based; details: Homo sapiens, CTG assay, noncancerous fibroblasts
Experimental: as §2, §3

[4] = Aqueous solubility by UV/vis absorbance; format: physicochemical; details: kinetic from dmso stock
Source text: as §1
Briefly, clear 96-well PS plates with lids (catalog no. 3903, Corning, Glendale, Arizona) were used for spectrophotometric determination of absorbance with a CLARIOstar Plus plate reader (BMG LabTech, Ortenberg, Germany) to determine at which concentration the compounds are precipitating out of solution. Decrease in transmittance of 2% or higher was considered significant. Compound solutions of 10 mM in DMSO were prepared followed by a serial dilution series, which were vortexed to ensure the solutions were homogeneous. The 96-well plate was then prepared with distilled H2O and allowed to equilibrate for 1.5 h. Then, the plate was placed in a CLARIOstar Plus plate reader or Cytation C10 (Biotek, Agilent) and set to detect absorbance at 220–700 nm. Each well was read individually. Three replicate assays were conducted for each experimental condition, and a minimum of three independent experiments were conducted.

[5] = Simulated gastric fluid (SGF) stability; format: in vitro ADME; details: simulated gi fluid; simulated gastric fluid; read-out: SGF stability t1/2 (converted)
Experimental: The simulated gastric fluid (SGF) assay is an important element in determining the overall drug-like potential of compounds.[29],[30] Anecdotal studies of oral consumption of extracts by humans indicate positive outcomes of digestion of mixtures of EP and its related natural products found in G. lucidum.[2] […] Chlorambucil was used as positive control as previously described.[32],[33] […] Caco-2 permeability studies were conducted to validate and to provide information on EP’s ability to cross the intestinal barrier and its potential for interactions with drug transporters.[36]−[39] The rate of transport in both directions (A-B and B-A) across the cell monolayer enables an efflux ratio (B-A/A-B) to be determined, enabling us to determine if a compound undergoes active efflux (efflux ratio ≥2).

[6] = Metabolic stability in mouse liver microsomes; format: in vitro ADME
Experimental: (§5) Human and/or mouse microsomal degradation was determined using multiple time points to monitor the rate of disappearance of the parent compound during incubation following the method described by Di et al.[51],[52] […] The metabolic stability was evaluated via the half-life from the least-squares fit of the multiple time points based on first-order kinetics. Waters ACQUITY-TOQ UPLC-MS-MS-UV system was used to analyze the samples as established in various MS core facilities.[51],[52]

[7] = Metabolic stability in human liver microsomes; format: in vitro ADME
Experimental: as §5

[8] = Plasma protein binding, rapid equilibrium dialysis (mouse); format: in vitro ADME
Experimental: (§4) This assay determines the plasma protein binding of a drug or compound and free drug concentration in plasma using rapid equilibrium dialysis. We use the Single-Use RED (rapid equilibrium dialysis, Thermo Scientific) devices to allow the aqueous component of plasma containing the free drug/compound through a dialysis membrane (MWCO ∼ 8000). Sample quantification is determined using a Waters ACQUITY-SOQ UPLC-MS-ELDS-UV system.

[9] = Plasma protein binding, rapid equilibrium dialysis (human); format: in vitro ADME
Experimental: as §4

[10] = in vitro; details: male, Balb/c, mouse, plasma
Experimental: (§6) Briefly, pooled blood from 3 animals for experiment (male Balb/c 6–8w from the division of laboratory animal medicine in-house breeding colony) was collected, and the heparinized plasma was prepared. Plasma and test compounds were added to individual wells of a 96-well microtiter plate. Compounds were incubated at 37 °C for the provided time points. All tests were performed in triplicates. The test compound was incubated with plasma at six different time points. The reaction was terminated by methanol containing an internal standard. After centrifugation, the concentration of the test compound in the supernatant was quantified by LC-MS/MS.
(§7) Plasma stability assay: Briefly, pooled blood from 3 animals for experiment (male Balb/c 6-8w
(§8) from the division of laboratory animal medicine in-house breeding colony) was collected, and
(§9) the heparinized plasma was prepared. Plasma and test compounds were added to the individual
(§10) wells of a 96-well microtiter plate. Compounds were incubated at 37°C for the provided time
(§11) points. All tests were performed in triplicates. Then, the test compound was incubated with
(§12) plasma at six different time points. The reaction was terminated by the addition of methanol
(§13) containing an internal standard. After centrifugation, the concentration of the test compound in
(§14) the supernatant was quantified by LC-MS/MS. The percentage of test compound remaining at
(§15) compounds are known to be metabolized by plasma esterases,1 and were also incubated with
each batch of test compound.
(§16) A standard protocol and MS method was used for the plasma stability experiment. The extraction
(§17) procedure for plasma/tissue samples and the spiked plasma/tissue calibration standards were
(§18) identical: A 25 µL of study sample or spiked plasma/tissue calibration standard was added to
(§19) individual pre-labeled micro-centrifuge tubes followed by 100 µL of internal standard prepared
(§20) in Acetonitrile (Albendazole, 500 ng/mL) was added except for blank, where 100 µL of
(§21) Acetonitrile was added. Samples were vortexed for 5 minutes. Samples were centrifuged for 5
(§22) minutes at a speed of 4000 rpm at 4°C. Following centrifugation, 100 µL of clear supernatant
(§23) was transferred in 96 well plates and analyzed using LC-MS/MS mode. The LC system
(§24) comprises of a binary pump that can mix two mobile phases: A = Water+0.1% formic acid; B =
(§25) acetonitrile +0.1%formic acid. The system was operated in gradient mode using a 6 minute
(§26) min, 10-90% A to B in 5.5-6 min, and then hold at this gradient, using a Phenomenex Luna, 150
(§27) X 4.6 mm, 5 µm column. Source Parameter: positive, Ion Spray Voltage 5500, Temperature
550C, interface heater on.

[11] = in vitro; details: human, plasma
[12] = Caco-2 permeability assay; format: in vitro ADME; details: human
Experimental: It was performed in the 96-well Transwell system with a modified method.[36] Caco-2 cells were maintained at 37 °C in a humidified incubator with an atmosphere of 5% CO2. The cells were cultured in MEM containing 20% FBS in […], 100 units/mL penicillin, and 100 μg/mL of streptomycin. The Caco-2 cells were seeded onto inserts of a 96-well plate at a density of 0.5 × 10^5 cells/insert and cultured in the MEM containing 20% FBS for 7 days. Each cultured monolayer on the 96-well plate was washed twice with HBSS/HEPES (10 mM, pH 7.4). The permeability assay was initiated by the addition of each compound solution (10 μmol/L) into inserts (apical side, A) or receivers (basolateral side, B). The Caco-2 cell monolayers were incubated for 2 h at 37 °C. Fractions were collected from receivers (if apical to basal permeability) or inserts (if basal to apical permeability), and concentrations were assessed by UPLC/MS (Waters; Milford, MA). All compounds were tested in triplicates. The A → B (or B → A) apparent permeability coefficients ([…]) of each compound were calculated using the equation Pappa = dQ/dt × 1/AC0. The flux of a drug across the monolayer is dQ/dt (μmol/s). The initial drug concentration on the apical side is C0 (μmol/L). The surface area of the monolayer is A (cm^2).

[13] = Plasma stability assay (mouse); details: male, Balb/c, mouse, plasma
Experimental: as §6, §7, §8, §9, §10, §11, §12, §13, §14, §15
each batch of test compound.
as §16, §17, §18, §19, §20, §21, §22, §23, §24, §25, §26, §27
550C, interface heater on.

[14] = Plasma stability assay (human)

Compound | EC50 [1] | IC50 [1] | EC50 [2] | EC50 [3] | solubility at […] ([4]; water) | other results
CC(C)[C@@H](C)/C=C/[C@@H](C)[C@H]1CC[C@@H]2[C@]1(C)CC[C@H]1[C@]23C=C[C@]2(C[C@@H](OS(=O)(=O)O)CC[C@]12C)OO3 [Compound 9] | 2.7 µM | 2.75 µM | 3.47 µM | 50 µM | 15.5 µg/mL (≈ 30.5 µM) | –
O=C(O)CCCc1ccc(N(CCCl)CCCl)cc1 [chlorambucil, reference compound] | – | – | – | – | – | half-life [5]: 18.4 h
CC(C)[C@@H](C)C1OC1[C@@H](C)[C@H]1CC[C@@H]2[C@]1(C)CC[C@H]1[C@]23C=C[C@]2(C[C@@H](OS(=O)(=O)O)CC[C@]12C)OO3 (stereo partly shown) [Compound 5a] | 2.24 µM | 2.29 µM | 7.37 µM | 48 µM | 26.2 µg/mL (≈ 49.9 µM) | –
C=CC(=O)O[C@H]1CC[C@]2(C)[C@H]3CC[C@]4(C)[C@@H]([C@H](C)/C=C/[C@H](C)C(C)C)CC[C@H]4[C@@]34C=C[C@]2(C1)OO4 [Compound 4] | 31 µM | 31.6 µM | 47.6 µM | 92.5 µM | 24.1 µg/mL (≈ 50 µM) | –
CC(C)[C@@H](C)/C=C/[C@@H](C)[C@H]1CC[C@@H]2[C@]1(C)CC[C@H]1[C@]23C=C[C@]2(C[C@@H](OC(=O)NS(=O)(=O)c4ccccc4)CC[C@]12C)OO3 [Compound 7] | 5.6 µM | 5.62 µM | 12 µM | 47.1 µM | 26.8 µg/mL (≈ 43.7 µM) | metabolic stability (mouse) clint [6]: 63.82 mL/Min/K g; half-life ([6]; female, CD-1, pooled liver microsomes, read-out: metabolic stability (mouse) t1/2 (converted)): 0.9 h; metabolic stability (human) clint [7]: 24.91 mL/Min/K g; half-life ([7]; both sexes, pooled liver microsomes, read-out: metabolic stability (human) t1/2 (converted)): 0.83 h; fraction unbound [8]: 0.0017; fraction unbound [9]: 0.0062; half-life [10]: > 48 h; half-life [11]: > 48 h
CC(C)[C@@H](C)C(O)C(O)[C@@H](C)[C@H]1CC[C@@H]2[C@]1(C)CC[C@H]1[C@@]23OO[C@@]2(C[C@@H](O)CC[C@]12C)C(O)C3O (stereo partly shown) [Compound 8] | 6.42 µM | 6.46 µM | 29.7 µM | 172 µM | 24.8 µg/mL (≈ 50 µM) | –
CC(C)[C@@H](C)C1OC1[C@@H](C)[C@H]1CC[C@@H]2[C@]1(C)CC[C@H]1[C@]23C=C[C@]2(C[C@@H](O)CC[C@]12C)OO3 (stereo partly shown) [Compound 5] | 2.74 µM | 2.75 µM | 15.7 µM | 70.4 µM | 5.56 µg/mL (≈ 12.5 µM) | –
CC(C)[C@@H](C)/C=C/[C@@H](C)[C@H]1CC[C@@H]2[C@]1(C)CC[C@H]1[C@@]23OO[C@@]2(C[C@@H](O)CC[C@]12C)C(O)C3O (stereo partly shown) [Compound 6] | 14.5 µM | 14.8 µM | 25.4 µM | 135 µM | 23.1 µg/mL (≈ 50 µM) | –
CC(C)[C@@H](C)/C=C/[C@@H](C)[C@H]1CC[C@H]2C3=CC=C4C[C@@H](O)CC[C@]4(C)[C@H]3CC[C@]12C [Compound 1, Ergosterol] | 61 µM | 61.7 µM | > 120 µM | – | – | solubility at […] ([4]; distilled water, distilled H2O, UV/vis, read-out: solubility limit): 0.59 µg/mL (≈ 1.49 µM)
CC(C)[C@@H](C)/C=C/[C@@H](C)[C@H]1CC[C@@H]2[C@]1(C)CC[C@H]1[C@@]23OO[C@@]2(C[C@@H](OS(=O)(=O)O)CC[C@]12C)C(OS(=O)(=O)O)C3OS(=O)(=O)O (stereo partly shown) [Compound 10] | 3.11 µM | 3.09 µM | 10.7 µM | 77.9 µM | 17.8 µg/mL (≈ 25.4 µM) | –
NC(=O)N1c2ccccc2C=Cc2ccccc21 [carbamazepine, reference compound] | – | – | – | – | – | efflux ratio at 2 h, 10 µmol/L ([12]; Caco-2, pH 7.4, Caco-2, read-out: efflux ratio (B2A/A2B)): 0.74; Papp A→B at 2 h, 10 µmol/L ([12]; Caco-2, pH 7.4, apical to basolateral): 37.6 ×10⁻⁶ cm/s; Papp B→A at 2 h, 10 µmol/L ([12]; Caco-2, pH 7.4, basolateral to apical): 27.7 ×10⁻⁶ cm/s
CC1CC(OC(=O)C(O)c2ccccc2)CC(C)(C)N1C (stereo not shown) [eucatropine, reference compound] | – | – | – | – | – | half-life [13]: 1.87 h; half-life [14]: 0.41 h
